Measured values as given in US20230339991A1, “HYPOXIA-ACTIVATED DNA ALKYLATING AGENT AND MEDICAL USE THEREOF” (ASCENTAWITS PHARMACEUTICALS, LTD., priority 2020, published 2023).
pIC50: −log10 of the molar value. Like-named read-outs stand apart in the source and are kept apart here.

Key:
QGP-1 = experiment: Cytotoxicity, pancreatic cancer PA cells QGP-1; type: cell-based; conditions: Homo sapiens
Protocol: (§1) Compounds were exposed at various concentrations for 72 hours, followed by a wash step. Fresh medium was added for growth. The cell was stained to determine the cell survival rate and compared with controls treated with medium only.
(§2) In particular, exponentially grown cells were inoculated in 96-well plates at a density of 2×10^3 cells/100 μl/well and incubated for 24 hours at 37° C. and under the conditions of 5% CO2, 95% air and 100% relative humidity before addition of 99 μl of culture solution. The compounds were dissolved in 100% DMSO at 200 times of the desired final test concentration. When the drug was added, an aliquot of 1 μl of the compound at the specified concentration was added to microwells already containing 199 μl of medium to obtain the reported final drug concentration. After adding the drug, plates were incubated for an additional 72 hours at 37° C., 5% CO2, 95% air and 100% relative humidity. The cell assay plate was left to balance for 30 minutes at room temperature and 100 μL of medium was removed from per well. 100 μl CTG reagent (CelltiterGlo kit) was added into each well. The plate was placed on a fast shaker and shaked for 2 min, and kept in dark at room temperature for 30 min. The chemiluminescence signal value was read by Envision instrument. […]

PANC-1 = experiment: Cytotoxicity, pancreatic cancer PA cells PANC-1; type: cell-based; conditions: Homo sapiens
Protocol: as §1, §2

HPAF-II = experiment: Cytotoxicity, pancreatic cancer PA cells HPAF-II; type: cell-based; conditions: Homo sapiens
Protocol: as §1, §2

[1] = tested on: HuPrime model GA6201 human gastric cancer subcutaneous transplantation PDX tumor; experiment: GA6201 human gastric cancer subcutaneous PDX model; type: in vivo, BALB/c nude mice
Protocol: Then the dose was changed to 10 mg/kg by intraperitoneal injection administration daily for 4 days (QD×4, Day14-Day17). The dose and mode of administration were then changed to 20 mg/kg via tail vein injection for one day (QD×1, Day18). After drug withdrawal for 10 days, the dose was changed again, and 50 mg/kg was administered via tail vein injection once a week for two weeks QW×2 (Day28, Day35).
The tumor volumes of mice from different groups were measured at different days and the average values were obtained.

NCI-H23 = experiment: Cytotoxicity, NSCLC cell line NCI-H23; type: cell-based; conditions: Homo sapiens
Protocol: as §1, §2

PL45 = experiment: Cytotoxicity, pancreatic cancer PA cells PL45; type: cell-based; conditions: Homo sapiens
Protocol: as §1, §2

NCI-H1563 = experiment: Cytotoxicity, NSCLC cell line NCI-H1563; type: cell-based; conditions: Homo sapiens
Protocol: as §1, §2

[2] = tested on: human liver cancer HepG2 subcutaneous xenograft; experiment: Human liver cancer HepG2 subcutaneous xenograft model; type: in vivo, BALB/c nude mice; conditions: for relative tumor inhibition rate TGI (%): QW×3, tail vein, Day 45
Text: BALB/c nude mice were subcutaneously inoculated with human liver cancer HepG2 cells to establish human liver cancer subcutaneous transplantation tumor model.

[3] = tested on: human lung cancer NCI-H460-Luc2 intracranial transplantation tumor; conditions: for mean biofluorescence value / TGI: 11 days after grouping
Protocol: BALB/c nude mice were inoculated intracranially with human lung cancer NCI-H460-Luc2 cells to establish human lung cancer intracranial transplantation tumor model. […] The relative tumor inhibition rate TGI (%) was calculated based on tumor biofluorescence value and the efficacy was evaluated.

[4] = Maximal tolerance dose (MTD) test, compound C, two cycles; type: in vivo, ICR mice; conditions: both sexes, mouse, in vivo; intravenous; ICR mice; read-out: maximal tolerance dose (MTD), overall
Protocol: (§3) 18 ICR mice, 9 females/9 males, were randomly divided into compound C 10 mg/kg group, 20 mg/kg group and 40 mg/kg group according to gender and body weight, with 3 females/3 males in each group. […] It was administered once a day for 5 continuous days, and recovered for 1 week after the last administration. […] To explore the maximal tolerance dose, two cycles of administration were required. The dosage was adjusted and the administration was continued for 5 days.
(§4) The animals were closely observed for 2 h after administration on the administration day and once a day in the morning and once in the afternoon on the non-administration day. Body weight and dietary intake were measured twice a week during the test period. Dead animals and all surviving animals after 14 days from the last administration were subjected to autopsy. The autopsy was performed on the pathological organs, and histopathological examination of the pathological organs was performed.

ICR mice = experiment: as above; type: in vivo; conditions: for maximal tolerance dose: intravenous, ICR mice
Protocol: as §3, §4

[5] = Liver microsome stability, monkey
Protocol: 1) Two individual experiments were performed.
1a) With NADPH: 10 μL of 20 mg/mL liver microsomes and 40 μL of 10 mM NADPH were added to the culture solution. The final concentrations of microsomes and NADPH were 0.5 mg/mL and 1 mM, respectively.
1b) Without NADPH: 10 μL of 20 mg/mL liver microsomes and 40 μL of ultrapure H2O were added to the culture solution. The final concentration of microsomes was 0.5 mg/mL.
3) 50 μL of aliquots were taken from the reaction solution at 0 min and 30 min. The reaction was terminated by adding 4 volumes of cold acetonitrile and four internal standards (IS, 100 nM alprazolam, 200 nM caffeine, 200 nM labetalol and 2 μM ketoprofen). The samples were centrifuged at 3, 220×g for 40 min. The aliquots of 100 μL of supernatant were mixed with 100 μL of ultrapure H2O and then used for LC-MS/MS analysis. All experiments were performed in duplicate.

O=[N+]([O-])c1ccc(C(OP(=O)(N2CC2)N2CC2)C(F)(F)F)c2ccccc12 (racemic) [Compound A]
pIC50 (QGP-1): 5.20
pIC50 (PANC-1): 4.53
pIC50 (HPAF-II): 4.58
tumor volume ([1]; Group 06, 5-50 mg/kg regimen, day 3): 121.79 mm^3
tumor volume ([1]; Group 06, 5-50 mg/kg regimen, day 10): 153.46 mm^3
tumor volume ([1]; Group 06, 5-50 mg/kg regimen, day 14): 191.17 mm^3
tumor volume ([1]; Group 06, 5-50 mg/kg regimen, day 28): 280.86 mm^3
tumor volume ([1]; Group 06, 5-50 mg/kg regimen, day 42): 300.46 mm^3
tumor volume ([1]; Group 06, 5 then 10 mg/kg i.p., 20 and 50 mg/kg i.v. (Table 10), day 0): 94.24 mm^3
pIC50 (NCI-H23): 5.19
pIC50 (PL45): 4.77
pIC50 (NCI-H1563): 5.35

O=[N+]([O-])c1ccc([C@@H](OP(=O)(N2CC2)N2CC2)C(F)(F)F)c2ccccc12 (single isomer, unassigned) [Compound C]
cure rate ([2]; 20 mg/kg (Group 5)): 20%
relative tumor inhibition rate TGI (%) ([2]; 20 mg/kg): 33.10%
cure rate ([2]; 40 mg/kg (Group 6)): 20%
relative tumor inhibition rate TGI (%) ([2]; 40 mg/kg): 75.59%
mean biofluorescence value ([3]; 10 mg/kg tail vein QW×3): 7.07E+05 photon/second
TGI ([3]; 10 mg/kg tail vein): 99.82%
mean biofluorescence value ([3]; 20 mg/kg tail vein QW×3): 1.79E+05 photon/second
TGI ([3]; 20 mg/kg tail vein): 100.03%
mean biofluorescence value ([3]; 40 mg/kg tail vein QW×3): 1.04E+05 photon/second
TGI ([3]; 40 mg/kg tail vein): 100.05%
tolerability ([3]; single drug, 10-40 mg/kg): well tolerated
MTD [4]: 20 to 40 mg/kg
animal deaths after first cycle (ICR mice; 10, 20 and 40 mg/kg i.v., continuous administration for 5 days): no animal death
animal deaths (ICR mice; 10/80 mg/kg group (first cycle 10, second cycle 80 mg/kg)): 1/6
animal deaths (ICR mice; 20/60 mg/kg group): 3/6
animal deaths (ICR mice; 40/40 mg/kg group): 1/6
maximal tolerance dose (ICR mice; first cycle): > 40 mg/kg
maximal tolerance dose (ICR mice; second cycle): < 40 mg/kg

CC(OP(=O)(N1CC1)N1CC1)c1ccc([N+](=O)[O-])c2ccccc12 (centres unmarked) [Compound D]
Remaining percentage after 30 minutes ([5]; with NADPH): 0.86%
Remaining percentage after 30 minutes ([5]; without NADPH): 95.89%
